According to the Kinase Knowledgebase extract (Sharma et al. 2016):

System: MAPK14 (Balb/c mice)
Assay: Animal Model
Details: dose or concentration not given here

Row | Compound | inhibition [%]
1 | Cc1nc(COc2ccc(C(=O)Nc3cc(NC(=O)c4cc(F)cc(N5CCOCC5)c4)ccc3C)cc2)cs1 | 0

Target: MAPK14 (human) (UniProt Q16539)
Assay: Inhibition of LPS Induced TNF-alpha Release in Human PBMC
Details: not given

Chain of MAPK14 (human) (Q16539 whole entry, looked up): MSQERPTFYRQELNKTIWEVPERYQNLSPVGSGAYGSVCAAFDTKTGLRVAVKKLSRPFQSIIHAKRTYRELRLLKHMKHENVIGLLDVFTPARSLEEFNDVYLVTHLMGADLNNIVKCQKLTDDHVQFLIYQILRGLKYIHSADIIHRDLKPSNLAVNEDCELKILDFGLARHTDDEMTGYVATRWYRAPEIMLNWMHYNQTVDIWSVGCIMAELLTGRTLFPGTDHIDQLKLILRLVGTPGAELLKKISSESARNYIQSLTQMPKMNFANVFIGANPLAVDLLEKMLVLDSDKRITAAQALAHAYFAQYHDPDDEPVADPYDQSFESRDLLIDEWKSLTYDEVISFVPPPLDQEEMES

Row | Compound | IC50 [nM]
2 | COc1ccc(C(=O)Nc2cc(NC(=O)c3cccc(N(C)C)c3)ccc2C)c(OC)c1 | > 50000
3 | Cc1ccc(NC(=O)c2cccc(N(C)C)c2)cc1NC(=O)c1ccc(O)cc1 | > 50000
4 | COc1ccc(C(=O)Nc2cc(NC(=O)c3cccc(N(C)C)c3)ccc2C)cc1 | > 50000

Target: MAPK14 (UniProt Q16539)
Assay: Inhibition of MAPK14 Kinase Activity
Details: not given

Chain of MAPK14 (Q16539 whole entry, looked up): as above

Row | Compound | IC50 [nM]
5 | Cc1ccc(NC(=O)c2cc(F)cc(N3CCOCC3)c2)cc1NC(=O)c1ccc(OCc2ccncc2)cc1 | 17
6 | Cc1ccc(NC(=O)c2cccc(N3CCOCC3)c2)cc1NC(=O)c1ccc(OCc2ccncc2)cc1 | 22
7 | Cc1nc(COc2ccc(C(=O)Nc3cc(NC(=O)c4cccc(N5CCOCC5)c4)ccc3C)cc2)cs1 | 28
8 | Cc1ccc(NC(=O)c2cc(F)cc(N3CCOCC3)c2)cc1NC(=O)c1ccc(OCc2cscn2)cc1 | 16
9 | Cc1ccc(NC(=O)c2cccc(N3CCOCC3)c2)cc1NC(=O)c1ccc(OCc2cccnc2)cc1 | 95
10 | Cc1ccc(NC(=O)c2cc(F)cc(N3CCOCC3)c2)cc1NC(=O)c1ccc(OCc2ccccn2)cc1 | 64
11 | Cc1ccc(NC(=O)c2cccc(N3CCOCC3)c2)cc1NC(=O)c1ccc(OCc2ccccc2)cc1 | 37
12 | Cc1nc(COc2ccc(C(=O)Nc3cc(NC(=O)c4cc(F)cc(N5CCOCC5)c4)ccc3C)cc2)cs1 | 97
